target: T1, MAGL (Homo sapiens, UniProt Q99685); test: 2-AG assay: MAGL inhibitory activity by hydrolysis of 2-arachidonoylglycerol to arachidonic acid, followed by mass spectrometry; format: biochemical; settings: 15 min preincubation, 30 min reaction at RT, 8 μM 2-arachidonoylglycerol
T1 sequence (Q99685 1-303): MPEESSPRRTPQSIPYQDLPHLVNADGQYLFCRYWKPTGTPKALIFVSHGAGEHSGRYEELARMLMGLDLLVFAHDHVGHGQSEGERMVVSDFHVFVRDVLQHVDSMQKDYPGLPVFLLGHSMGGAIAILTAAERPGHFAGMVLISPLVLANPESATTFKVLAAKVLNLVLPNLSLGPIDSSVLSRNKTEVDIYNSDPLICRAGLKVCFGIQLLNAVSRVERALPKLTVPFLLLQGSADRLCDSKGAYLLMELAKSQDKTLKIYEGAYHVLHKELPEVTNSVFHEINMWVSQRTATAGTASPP

| Structure (SMILES) | IC50 [nM] |
| --- | --- |
| O=C1COCC2(CN(C(=O)N3CC4(CC(OCC5(C(F)(F)F)CC5)C4)C3)C2)N1 [Example 140, 2-[6-[[1-(trifluoromethyl)cyclopro-pyl]methoxy]-2-azaspiro[3.3]heptane-2-carbonyl]-8-oxa-2,5-diazaspiro[3.5]nonan-6-one] | 78.9 |
| O=C1COCC2(CN(C(=O)N3CC4(CCN(S(=O)(=O)c5ccc(C(F)(F)F)cc5F)CC4)C3)C2)N1 [Example 141, 2-[7-[2-fluoro-4-(trifluoromethyl)phenyl]sulfonyl-2,7-diazaspiro[3.5]nonane-2-carbonyl]-8-oxa-2,5-diazaspiro[3.5]nonan-6-one] | 217 |
| O=C1NC2(CCO1)CN(C(=O)N1CC3(CCN(S(=O)(=O)c4ccc(C(F)(F)F)cc4F)CC3)C1)C2 [Example 144, 2-[7-[2-fluoro-4-(trifluoromethyl)phenyl]sulfonyl-2,7-diazaspiro[3.5]nonane-2-carbonyl]-7-oxa-2,5-diazaspiro[3.5]nonan-6-one] | 2120 |
| O=C1COCC2(CN(C(=O)N3CC4(CC(Cc5ccc(C(F)(F)F)cc5F)C4)C3)C2)N1 [Example 145] | 0.06 |
| O=C1CCC2(CN(C(=O)N3CC4(CCN(Cc5ccc(C(F)(F)F)nc5)CC4)C3)C2)N1 [Example 148, 2-[7-[[6-(trifluoromethyl)-3-pyridyl]methyl]-2,7-diazaspiro[3.5]nonane-2-carbonyl]-2,5-diazaspiro[3.4]octan-6-one] | 123 |
| O=C1NC2(CO1)CN(C(=O)N1CC3(CCN(Cc4ccc(C(F)(F)F)cn4)CC3)C1)C2 [Example 149, 2-[7-[[5-(trifluoromethyl)-2-pyridyl]methyl]-2,7-diazaspiro[3.5]nonane-2-carbonyl]-7-oxa-2,5-diazaspiro[3.4]octan-6-one] | 1.68 |
| O=C1NC2(CO1)CN(C(=O)N1CC3(CCN(Cc4ccc(C(F)(F)F)nc4)CC3)C1)C2 [Example 151, 2-[7-[[6-(trifluoromethyl)-3-pyridyl]methyl]-2,7-diazaspiro[3.5]nonane-2-carbonyl]-7-oxa-2,5-diazaspiro[3.4]octan-6-one] | 196 |
| O=C1CCC2(CN(C(=O)N3CC4(CCN(Cc5ccc(C(F)(F)F)nc5)C4)C3)C2)N1 [Example 152, 2-[7-[[6-(trifluoromethyl)-3-pyridyl]methyl]-2,7-diazaspiro[3.4]octane-2-carbonyl]-2,5-diazaspiro[3.4]octan-6-one] | 3.07 |
| O=C1NC2(CO1)CN(C(=O)N1CC3(CCN(Cc4ccc(C(F)(F)F)cn4)C3)C1)C2 [Example 154, 2-[7-[[5-(trifluoromethyl)-2-pyridyl]methyl]-2,7-diazaspiro[3.4]octane-2-carbonyl]-7-oxa-2,5-diazaspiro[3.4]octan-6-one] | 4.11 |
| O=C1CCC2(CN(C(=O)N3CC4(CCN(Cc5cnc(C(F)(F)F)cn5)C4)C3)C2)N1 [Example 155, 2-[7-[[5-(trifluoromethyl)pyrazin-2-yl]methyl]-2,7-diazaspiro[3.4]octane-2-carbonyl]-2,5-diazaspiro[3.4]octan-6-one] | 237 |
| O=C1NC2(CO1)CN(C(=O)N1CC3(CCN(Cc4ccc(C(F)(F)F)nc4)C3)C1)C2 [Example 156, 2-[7-[[6-(trifluoromethyl)-3-pyridyl]methyl]-2,7-diazaspiro[3.4]octane-2-carbonyl]-7-oxa-2,5-diazaspiro[3.4]octan-6-one] | 5.07 |
| O=C1NC2(CO1)CN(C(=O)N1CC3(CCN(Cc4cnc(C(F)(F)F)cn4)C3)C1)C2 [Example 157, 2-[7-[[5-(trifluoromethyl)pyrazin-2-yl]methyl]-2,7-diazaspiro[3.4]octane-2-carbonyl]-7-oxa-2,5-diazaspiro[3.4]octan-6-one] | 9.86 |
| O=C1NC2(CO1)CN(C(=O)N1CC3(CCN(Cc4ccc(C(F)(F)F)nn4)C3)C1)C2 [Example 158, 2-[7-[[6-(trifluoromethyl)pyrida-zin-3-yl]methyl]-2,7-diazaspiro[3.4]octane-2-carbonyl]-7-oxa-2,5-diazaspiro[3.4]octan-6-one] | 33.9 |
| O=C1NC2(CO1)CN(C(=O)N1CC3(CN(Cc4ncc(F)cc4F)C3)C1)C2 [Example 162, 2-[6-[(3,5-difluoro-2-pyridyl)methyl]-2,6-diazaspiro[3.3]heptane-2-carbonyl]-7-oxa-2,5-diazaspiro[3.4]octan-6-one] | 15.1 |
| Cn1ncc(CC2CC3(C2)CN(C(=O)N2CC4(CCC(=O)N4)C2)C3)c1C(F)(F)F [Example 165] | 0.52 |
| Cn1ncc(C(F)(F)F)c1CC1CC2(C1)CN(C(=O)N1CC3(CCC(=O)N3)C1)C2 [Example 167, 2-[6-[[2-methyl-4-(trifluoromethyl)pyrazol-3-yl]methyl]-2-azaspiro[3.3]heptane-2-carbonyl]-2,5-diazaspiro[3.4]octan-6-one] | 1.72 |
| O=C1CCC2(CN(C(=O)N3CC4(CC(Cn5nccc5C(F)(F)F)C4)C3)C2)N1 [Example 168, 2-[6-[[5-(trifluoromethyl)pyrazol-1-yl]methyl]-2-azaspiro[3.3]heptane-2-carbonyl]-2,5-diazaspiro[3.4]octan-6-one] | 2.45 |
| Cn1cc(CC2CC3(C2)CN(C(=O)N2CC4(CCC(=O)N4)C2)C3)c(C(F)(F)F)n1 [Example 169, 2-[6-[[1-methyl-3-(trifluoromethyl)pyrazol-4-yl]methyl]-2-azaspiro[3.3]heptane-2-carbonyl]-2,5-diazaspiro[3.4]octan-6-one] | 2.35 |
| O=C1COCC2(CN(C(=O)N3CC4(CC(Cc5cncc(Cl)c5)C4)C3)C2)N1 [Example 172, 2-[6-[(5-chloro-3-pyridyl)methyl]-2-azaspiro[3.3]heptane-2-carbonyl]-8-oxa-2,5-diazaspiro[3.5]nonan-6-one] | 38.2 |
| O=C1COCC2(CN(C(=O)N3CC4(CC(Cc5cncc(C(F)(F)F)c5)C4)C3)C2)N1 [Example 173, 2-[6-[[5-(trifluoromethyl)-3-pyridyl]methyl]-2-azaspiro[3.3]heptane-2-carbonyl]-8-oxa-2,5-diazaspiro[3.5]nonan-6-one] | 20.8 |

Now from value to compound:

| IC50 [nM] | Structure (SMILES) |
| --- | --- |
| 0.45 | O=C1COCC2(CN(C(=O)N3CC4(CC(Cc5cc(F)cc(C(F)(F)F)c5)C4)C3)C2)N1 [Example 142] |
| 0.07 | O=C1COCC2(CN(C(=O)N3CC4(CC(Cc5ccc(F)cc5C(F)(F)F)C4)C3)C2)N1 [Example 143] |
| 10.9 | O=C1CCC2(CN(C(=O)N3CC4(CCN(Cc5ccc(C(F)(F)F)cn5)CC4)C3)C2)N1 [Example 146, 2-[7-[[5-(trifluoromethyl)-2-pyridyl]methyl]-2,7-diazaspiro[3.5]nonane-2-carbonyl]-2,5-diazaspiro[3.4]octan-6-one] |
| 23.2 | CS(=O)(=O)c1cc(F)ccc1CC1CC2(C1)CN(C(=O)N1CC3(COCC(=O)N3)C1)C2 [Example 147, 2-[6-(4-fluoro-2-mesyl-benzyl)-2-azaspiro[3.3]heptane-2-carbonyl]-8-oxa-2,5-diazaspiro[3.5]nonan-6-one] |
| 140 | O=C1CCC2(CN(C(=O)N3CC4(CCN(Cc5ccc(C(F)(F)F)cn5)C4)C3)C2)N1 [Example 150, 2-[7-[[5-(trifluoromethyl)-2-pyridyl]methyl]-2,7-diazaspiro[3.4]octane-2-carbonyl]-2,5-diazaspiro[3.4]octan-6-one] |
| 4.75 | O=C1NC2(CO1)CN(C(=O)N1CC3(CN(Cc4cc(F)cc(F)c4)C3)C1)C2 [Example 153, 2-[6-(3,5-difluorobenzyl)-2,6-diazaspiro[3.3]heptane-2-carbonyl]-7-oxa-2,5-diazaspiro[3.4]octan-6-one] |
| 109 | O=C1NC2(CO1)CN(C(=O)N1CC3(CN(Cc4ccc(C(F)(F)F)nn4)C3)C1)C2 [Example 159, 2-[6-[[6-(trifluoromethyl)pyrida-zin-3-yl]methyl]-2,6-diazaspiro[3.3]heptane-2-carbonyl]-7-oxa-2,5-diazaspiro[3.4]octan-6-one] |
| 279 | CS(=O)(=O)c1ccc(CN2CCC3(CC2)CN(C(=O)N2CC4(CCC(=O)N4)C2)C3)cc1 [Example 160, 2-[7-(4-mesylbenzyl)-2,7-diazaspiro[3.5]nonane-2-carbonyl]-2,5-diazaspiro[3.4]octan-6-one] |
| 51.5 | O=C1NC2(CO1)CN(C(=O)N1CC3(CN(Cc4cnc(C(F)(F)F)nc4)C3)C1)C2 [Example 161, 2-[6-[[2-(trifluoromethyl)pyrimi-din-5-yl]methyl]-2,6-diazaspiro[3.3]heptane-2-carbonyl]-7-oxa-2,5-diazaspiro[3.4]octan-6-one] |
| 2.78 | CS(=O)(=O)c1cccc(CN2CCC3(CC2)CN(C(=O)N2CC4(CCC(=O)N4)C2)C3)c1 [Example 163, 2-[7-(3-mesylbenzyl)-2,7-diazaspiro[3.5]nonane-2-carbonyl]-2,5-diazaspiro[3.4]octan-6-one] |
| 52.5 | CS(=O)(=O)c1ccc(CN2CC3(C2)CN(C(=O)N2CC4(COC(=O)N4)C2)C3)cc1 [Example 164, 2-[6-(4-mesylbenzyl)-2,6-diazaspiro[3.3]heptane-2-carbonyl]-7-oxa-2,5-diazaspiro[3.4]octan-6-one] |
| 1.31 | Cn1nc(CC2CC3(C2)CN(C(=O)N2CC4(CCC(=O)N4)C2)C3)cc1C(F)(F)F [Example 166, 2-[6-[[1-methyl-5-(trifluoromethyl)pyrazol-3-yl]methyl]-2-azaspiro[3.3]heptane-2-carbonyl]-2,5-diazaspiro[3.4]octan-6-one] |
| 7.82 | O=C1COCC2(CN(C(=O)N3CC4(CC(Cc5ccc(C(F)(F)F)cn5)C4)C3)C2)N1 [Example 170, 2-[6-[[5-(trifluoromethyl)-2-pyridyl]methyl]-2-azaspiro[3.3]heptane-2-carbonyl]-8-oxa-2,5-diazaspiro[3.5]nonan-6-one] |
| 1.42 | O=C1COCC2(CN(C(=O)N3CC4(CC(Cc5ncc(C(F)(F)F)cc5F)C4)C3)C2)N1 [Example 171, 2-[6-[[3-fluoro-5-(trifluoromethyl)-2-pyridyl]methyl]-2-azaspiro[3.3]heptane-2-carbonyl]-8-oxa-2,5-diazaspiro[3.5]nonan-6-one] |

— patent US20240383904A1, “HETEROCYCLIC COMPOUNDS” (Hoffmann-La Roche Inc., priority 2021, published 2024)
